The target in one data set is T1, human GIP receptor (Homo sapiens, UniProt P48546).
T1 construct: expressed in transfected cells; host or cells: BHK (parent line BHKTS13), BHK CRE luc2P hGIPR clone #5
T1 sequence (P48546 22-466): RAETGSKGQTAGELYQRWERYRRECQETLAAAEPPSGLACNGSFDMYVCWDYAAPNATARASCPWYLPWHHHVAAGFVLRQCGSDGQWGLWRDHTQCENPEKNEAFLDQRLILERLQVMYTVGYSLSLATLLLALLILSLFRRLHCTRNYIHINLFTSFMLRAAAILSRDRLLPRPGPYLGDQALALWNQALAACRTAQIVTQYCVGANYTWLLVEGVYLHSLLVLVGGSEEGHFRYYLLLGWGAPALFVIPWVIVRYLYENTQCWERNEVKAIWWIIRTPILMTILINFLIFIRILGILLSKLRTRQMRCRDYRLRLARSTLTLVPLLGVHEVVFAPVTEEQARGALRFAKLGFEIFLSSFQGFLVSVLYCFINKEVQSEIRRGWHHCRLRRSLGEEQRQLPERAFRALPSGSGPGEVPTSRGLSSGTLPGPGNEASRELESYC
The data set can be described thus: In vitro potency (CRE luciferase; whole cells), BHK CRE luc2P hGIPR. The class given is cell-based. Conditions: 0.2% HSA. How it is done:
(§1) In Vitro Potency (CRE Luciferase; Whole Cells)
(§2) The in vitro potency is the measure of human GIP, GLP-1 or glucagon receptor activation, respectively, in a whole cell assay.
(§3) In vitro potency was determined by measuring the response of the human GIP, GLP-1 or glucagon receptor in a reporter gene assay in individual cell lines. […] When the respective receptor is activated it results in the production of cAMP, which in turn results in the luciferase protein being expressed. When assay incubation is completed the luciferase substrate (luciferin) is added and the enzyme converts luciferin to oxyluciferin to produce bioluminescence. The luminescence is measured as the readout for the assay.
(§4) The cells were derived from a clone containing the CRE luciferase element and were established by further transfection with the respective receptor to obtain the current clone.
(§5) The cells were cultured at 5% CO2 in Cell Culture Medium. They were aliquoted and stored in liquid nitrogen. The cells were kept in passage and were seeded out the day before each assay.
(§6) The Assay Buffer consisted of 1% ovalbumin and 0.1% Pluronic F-68 in Assay Medium with the addition of human serum albumin at twice the indicated concentrations.
(§7) 1) Cells were plated at 5000 cells/well and incubated overnight.
(§8) 2) Cells were washed three times in PBS.
(§9) 3) Assay Medium (50 μl aliquot) with or without serum albumin was added to each well in the assay plate.
(§10) 4) Stocks of the test compounds and reference compounds were diluted to a concentration of 0.2 μM in Assay Buffer. […] 8) The cells were washed three times with PBS plus some liquid in each well. 9) A 100 μl aliquot of steadylite plus reagent was added to each well of the assay plate (reagent was light sensitive). 10) Each assay plate was covered with aluminum foil to protect it from light and shaken for 30 min at room temperature. 11) Each assay plate was read in a microtiter plate reader. Calculations and Results
(§11) The data from the microtiter plate reader was transferred to GraphPad Prism software. The software performs a non-linear regression (log(agonist) vs response).
(§12) A minimum of two replicates was measured for each sample. The reported values are averages of the replicates.

Data set [1] can be described thus: ThT fibrillation assay (physical stability). Format: physicochemical. As to conditions: 250 μM, pH 7.4, 37° C., 45 hours of incubation. How it is done:
The Thioflavin T assay was performed as outlined in Schlein (2017), AAPS J, 19(2), 397-408.
This has traditionally been measured by visual inspection of the sample. However, that kind of measurement is very cumbersome and depending on the observer. Therefore, the application of a small molecule indicator probe is much more advantageous. Thioflavin T (ThT) is such a probe and has a distinct fluorescence signature when binding to fibrils [Naiki et al. (1989) Anal. Biochem. 177, 244-249; LeVine (1999) Methods. Enzymol. 309, 274-284].
The time course for fibril formation can be described by a sigmoidal curve with the following expression [Nielsen et al. (2001) Biochemistry 40, 6036-6046]:
Here, F is the ThT fluorescence at the time t. The constant t0 is the time needed to reach 50% of maximum fluorescence. The two important parameters describing fibril formation are the lag-time calculated by t0−2τ and the apparent rate constant kapp 1/τ.
Few of those intermediates nucleate to form a template onto which further intermediates may assembly and the fibrillation proceeds. The lag-time corresponds to the interval in which the critical mass of nucleus is built up and the apparent rate constant is the rate with which the fibril itself is formed.
Samples are prepared freshly before each assay. The drug substance was solved with 250 μM of the GIP derivative in 8 mM phosphate, 14 mg/mL propylene glycol, 58 mM phenol, pH 7.4. The pH of the sample was adjusted to the desired value using appropriate amounts of concentrated NaOH and HCl. Thioflavin T was added to the samples from a stock solution in H2O to a final concentration of 1 μM.
Sample aliquots of 200 μl were placed in each well of a 96 well microtiter plate (Packard OptiPlate™-96, white polystyrene). Four replica of each sample (corresponding to one test condition) was placed in one column of wells. The plate was sealed with Scotch Pad (Qiagen).
Incubation, shaking and measurement of the ThT fluorescence emission were done in a Fluoroskan Ascent FL fluorescence platereader (Thermo Labsystems). […] Fluorescence measurement was done using excitation through a 444 nm filter and measurement of emission through a 485 nm filter.
Each run was initiated by incubating the plate at the assay temperature for 10 min. The plate was measured every 20 minutes for a desired period of time. Between each measurement, the plate was shaken and heated as described.
After completion of the ThT assay the replica of each sample was pooled and centrifuged at 20000 rpm for 30 minutes at 18° C. The supernatant was filtered through a 0.22 μm filter and an aliquot was transferred to a HPLC vial. The concentration of the filtered sample relative to the initial sample (in percentage) was reported as the recovery.
The measurement points were saved in Microsoft Excel format for further processing and curve drawing and fitting was performed using GraphPad Prism. […] The data points were a mean of the four replica and shown with standard deviation error bars. Only data obtained in the same experiment (i.e. samples on the same plate) were presented in the same graph ensuring a relative measure of fibrillation between experiments.
The data set may be fitted to Eq. (1).

A short description of data set [2]: Dynamic Light Scattering Stability Index (DLS-SI). The class given is physicochemical. Conditions: concentration only 5 μM instead of 250 μM; pH 7.4, 25° C.
Data set [3] can be described thus: Chemical stability: HMWP formation by SEC-MS. The class given is physicochemical. Conditions: 37° C., 4 weeks, 250 μM, pH 7.4. How it is done:
The aim of this study is to determine the chemical stability of GIP derivative compositions. As a measure of stability of the GIP derivative composition, the formation of high molecular weight peptide formation (% HMWP) as a function of time was analysed by size-exclusion chromatography (SEC-MS). Further, the purity loss of the GIP derivative compositions was measured by LCMS. Samples for chemical stability assays were freshly prepared before each assay. […] The pH of the sample was adjusted to the desired value using appropriate amounts of concentrated NaOH and HCl. […] Formation of covalent oligomers (HMWPs) was analysed and identified by a SEC-MS method. […] The LC system was coupled to both a TUV detector operated at 215 nm, 10 Hz and a high resolution QToF mass spectrometer from Waters (Synapt G2S) operated in positive ion mode and m/z range of 100 to 4000 with normal resolution setting. Lock mass correction against Leu-Enkephalin was done every 31 sec. Spectra were processed in MassLynx version 4.1 and MaxEnt deconvoluted.
For orientation: Size exclusion chromatography separates by hydrodynamic size, large species first.

The nature of data set [4]: Chemical stability: purity loss by LCMS. Format: physicochemical. As to conditions: 37° C., 4 weeks, 250 μM, pH 7.4. How it is done:
The aim of this study is to determine the chemical stability of GIP derivative compositions. As a measure of stability of the GIP derivative composition, the formation of high molecular weight peptide formation (% HMWP) as a function of time was analysed by size-exclusion chromatography (SEC-MS). Further, the purity loss of the GIP derivative compositions was measured by LCMS. Samples for chemical stability assays were freshly prepared before each assay. […] The pH of the sample was adjusted to the desired value using appropriate amounts of concentrated NaOH and HCl. […] The column oven was kept at 55° C. […] The solvents were pumped from a binary solvent manager system and mixed on the high pressure side in a mixer with a volume of 50 μl. The gradient and flow can be seen in table 4: [table] A Flow-through-needle auto sampler at 8° C. was used to inject 1 μl of each sample. The effluent passed through a tunable UV detector (TUV) tuned to 215 nm. The outlet from the UV detector passed to the electrospray source of the mass spectrometer. The capillary was held at 3 kV and dry nitrogen gas was purged at a flow of 750 I/h and a temperature of 250° C. The source block was kept at 120° C. and the large bore cone was flushed with nitrogen at 50 I/h with standard electrode potentials on the rest of the instrument. The MS was operated in high resolution mode with a nominal resolution of 35000. The ToF analyser was operated in ADC mode with an m/z window from 100-2000.

In another data set the target is T2, human GLP-1 receptor (Homo sapiens, UniProt P43220).
T2 construct: expressed in transfected cells; host or cells: BHK (parent line BHKTS13), BHK CRE luc2P hGLP-1R clone #6
T2 sequence (P43220 24-463): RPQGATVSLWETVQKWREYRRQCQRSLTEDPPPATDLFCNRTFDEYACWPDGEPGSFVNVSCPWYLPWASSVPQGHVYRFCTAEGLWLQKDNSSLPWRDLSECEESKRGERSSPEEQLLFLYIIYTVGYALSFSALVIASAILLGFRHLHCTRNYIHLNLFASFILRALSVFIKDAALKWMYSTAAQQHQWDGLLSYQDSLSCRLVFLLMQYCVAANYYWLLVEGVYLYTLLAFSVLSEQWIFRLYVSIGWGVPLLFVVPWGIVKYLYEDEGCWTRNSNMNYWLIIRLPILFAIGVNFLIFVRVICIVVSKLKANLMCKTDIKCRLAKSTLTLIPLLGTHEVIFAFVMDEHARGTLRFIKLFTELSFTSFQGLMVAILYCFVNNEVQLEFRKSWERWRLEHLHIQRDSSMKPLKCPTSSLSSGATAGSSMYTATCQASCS
The data set can be described thus: In vitro potency (CRE luciferase; whole cells), BHK CRE luc2P hGLP-1R. Format: cell-based. As to conditions: 0.2% HSA. How it is done:
as §1, §2, §3, §4, §5, §6, §7, §8, §9, §10, §11, §12

Entries after “also recorded” stand apart in the source; their conditions may differ.

The term EC50 denotes the concentration at which the effect is half-maximal. The low end stands for an effect from little substance, the high end for a need for much substance. At human GIP receptor, `CC[C@H](C)[C@H](NC(=O)[C@H](CO)NC(=O)[C@H](Cc1ccc(O)cc1)NC(=O)[C@H](CC(=O)O)NC(=O)[C@H](CO)NC(=O)[C@@H](NC(=O)[C@H](Cc1ccccc1)NC(=O)[C@@H](NC(=O)CNC(=O)[C@H](CCC(=O)O)NC(=O)[C@H](C)NC(=O)[C@@H](N)Cc1ccc(O)cc1)[C@@H](C)O)[C@@H](C)CC)C(=O)N[C@@H](C)C(=O)N[C@@H](CCSC)C(=O)N[C@@H](CC(=O)O)C(=O)N[C@@H](CCCCN)C(=O)N[C@H](C(=O)N[C@@H](Cc1c[nH]cn1)C(=O)N[C@@H](CCC(N)=O)C(=O)N[C@@H](CCC(N)=O)C(=O)N[C@@H](CC(=O)O)C(=O)N[C@@H](Cc1ccccc1)C(=O)N[C@H](C(=O)N[C@@H](CC(N)=O)C(=O)N[C@@H](Cc1c[nH]c2ccccc12)C(=O)N[C@@H](CC(C)C)C(=O)N[C@@H](CC(C)C)C(=O)N[C@@H](C)C(=O)N[C@@H](CCC(N)=O)C(=O)N[C@@H](CCCCN)C(=O)NCC(=O)O)C(C)C)[C@@H](C)CC` [hGIP(1-31), reference compound] displayed a concentration for a half-maximal effect (EC50) of 0.00224 nM. Besides, the “ThT Assay Lag time” value in data set [1] is on record as 0 h. Further, the DLS-SI precipitates entry in data set [2] is “visible as precipitation; also recorded: Yes^##”. Moreover, the “HMWP formation (%/month)” value in data set [3] is 0.15 %/month. Besides, in data set [4], the “Purity loss (%/month)” value turned out to be 86.9 %/month.
For `CCCC[C@H](NC(=O)[C@H](C)NC(=O)[C@@H](NC(=O)[C@H](CO)NC(=O)[C@H](Cc1ccc(O)cc1)NC(=O)[C@H](CC(=O)O)NC(=O)[C@H](CO)NC(=O)[C@@H](NC(=O)[C@H](Cc1ccccc1)NC(=O)[C@@H](NC(=O)CNC(=O)[C@H](CCC(=O)O)NC(=O)C(C)(C)NC(=O)[C@@H](Cc1ccc(O)cc1)NC(C)=O)[C@@H](C)O)[C@@H](C)CC)[C@@H](C)CC)C(=O)N[C@@H](CC(=O)O)C(=O)N[C@@H](CCCCN)C(=O)N[C@H](C(=O)N[C@@H](CCCNC(=N)N)C(=O)N[C@@H](CCC(N)=O)C(=O)N[C@@H](CCC(N)=O)C(=O)N[C@@H](CC(=O)O)C(=O)N[C@@H](Cc1ccccc1)C(=O)N[C@H](C(=O)N[C@@H](CCCCNC(=O)CC[C@H](NC(=O)CC[C@H](NC(=O)CC[C@H](NC(=O)CCCCCCCCCCCCCCCCC(=O)O)C(=O)O)C(=O)O)C(=O)O)C(=O)N[C@@H](Cc1c[nH]c2ccccc12)C(=O)N[C@@H](CC(C)C)C(=O)N[C@@H](CC(C)C)C(=O)N[C@@H](C)C(=O)N[C@@H](CCC(N)=O)C(=O)N[C@@H](CCCCN)C(=O)N1CCC[C@H]1C(N)=O)C(C)C)[C@@H](C)CC` [Compound 46, N{1}-acetyl,N{Epsilon-24}-[(4S)-4-carboxy-4-[[(4S)-4-carboxy-4-[[(4S)-4-carboxy-4-(17-carboxyheptadecanoylamino)butanoyl]amino]butanoyl]amino]butanoyl]-[D-Tyr1,Aib2,Nle14,Arg18,Lys24,Pro31]-hGIP(1-31) amide], the EC50 at human GIP receptor is 0.0212 nM; at human GLP-1 receptor, greater than 100 nM.
